Calls of active or inactive are those of the source. No cut-off for these calls is given here.
Columns and labels:
[1] = molecular target: T1, Cystine/glutamate transporter (Homo sapiens) (UniProt Q9UPY5); assay: Inhibition of XCT in CpG-A-activated human plasmacytoid dendritic cells at 25 to 100 uM assessed as decrease in TNF production in presence of 100 uM sulfasalazine; format: cell-based; conditions: Plasmacytoid dendritic cell, dose 25-100 µM
T1 sequence (whole entry): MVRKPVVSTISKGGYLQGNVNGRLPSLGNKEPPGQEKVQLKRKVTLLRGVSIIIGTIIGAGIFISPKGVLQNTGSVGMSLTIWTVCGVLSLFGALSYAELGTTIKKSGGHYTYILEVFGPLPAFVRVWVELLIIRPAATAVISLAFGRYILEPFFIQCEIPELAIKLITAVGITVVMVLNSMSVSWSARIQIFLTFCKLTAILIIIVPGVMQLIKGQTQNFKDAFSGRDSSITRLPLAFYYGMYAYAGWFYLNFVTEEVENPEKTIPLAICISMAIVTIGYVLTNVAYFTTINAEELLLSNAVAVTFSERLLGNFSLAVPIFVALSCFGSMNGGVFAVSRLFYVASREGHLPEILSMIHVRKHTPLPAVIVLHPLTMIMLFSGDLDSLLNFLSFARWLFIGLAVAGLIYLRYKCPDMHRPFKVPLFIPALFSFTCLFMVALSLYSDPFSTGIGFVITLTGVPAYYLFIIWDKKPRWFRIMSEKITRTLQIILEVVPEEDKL

[2] = molecular target: Large neutral amino acids transporter small subunit 1 (Homo sapiens) (UniProt Q01650); assay: Inhibition of human LAT1 at 100 uM relative to control
[3] = molecular target: T2, Signal transducer and activator of transcription 5A (Homo sapiens) (UniProt P42229); assay: Inhibition of STAT5 in IL-3 and CpG-A-stimulated human plasmacytoid dendritic cells at 1 to 2 uM assessed as decrease in IFN-alpha production in presence of 100 uM sulfasalazine; format: cell-based; conditions: Plasmacytoid dendritic cell, dose 1-2 µM
T2 sequence (whole entry): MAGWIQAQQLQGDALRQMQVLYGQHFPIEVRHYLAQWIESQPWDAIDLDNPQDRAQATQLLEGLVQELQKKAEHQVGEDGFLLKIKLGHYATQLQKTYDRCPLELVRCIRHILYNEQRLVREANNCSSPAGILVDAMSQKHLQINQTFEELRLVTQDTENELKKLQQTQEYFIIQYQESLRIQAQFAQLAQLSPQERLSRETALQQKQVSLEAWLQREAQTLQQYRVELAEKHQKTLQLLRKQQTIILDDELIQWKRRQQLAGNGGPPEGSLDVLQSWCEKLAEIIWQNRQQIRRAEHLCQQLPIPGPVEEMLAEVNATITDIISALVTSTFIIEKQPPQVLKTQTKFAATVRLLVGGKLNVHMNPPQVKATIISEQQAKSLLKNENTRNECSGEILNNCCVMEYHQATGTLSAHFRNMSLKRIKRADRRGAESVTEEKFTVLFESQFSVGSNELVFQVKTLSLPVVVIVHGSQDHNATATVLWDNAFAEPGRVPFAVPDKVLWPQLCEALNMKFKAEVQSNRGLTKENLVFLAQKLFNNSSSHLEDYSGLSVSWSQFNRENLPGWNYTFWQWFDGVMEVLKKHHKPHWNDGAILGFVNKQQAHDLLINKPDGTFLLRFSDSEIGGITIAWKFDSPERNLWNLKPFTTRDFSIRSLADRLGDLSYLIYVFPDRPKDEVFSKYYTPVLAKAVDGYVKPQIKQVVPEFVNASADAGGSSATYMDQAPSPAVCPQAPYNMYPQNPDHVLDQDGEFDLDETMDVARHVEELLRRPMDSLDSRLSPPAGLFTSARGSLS

[4] = molecular target: T2, Signal transducer and activator of transcription 5A (Homo sapiens); assay: Inhibition of STAT5 in IL-3 and CpG-A-stimulated human plasmacytoid dendritic cells at 1 to 2 uM assessed as decrease in TNF production in presence of 100 uM sulfasalazine; format: cell-based; conditions: Plasmacytoid dendritic cell, dose 1-2 µM
[5] = molecular target: Glyceraldehyde-3-phosphate dehydrogenase (Homo sapiens) (UniProt P04406); assay: Inhibition of GAPDH in CpG-A-stimulated human plasmacytoid dendritic cells at 10 uM assessed as reduction in secreted lactate levels; format: cell-based; conditions: Plasmacytoid dendritic cell
[6] = molecular target: Glyceraldehyde-3-phosphate dehydrogenase (Homo sapiens) (UniProt P04406); assay: Inhibition of GAPDH in CpG-A-stimulated human plasmacytoid dendritic cells at 10 uM assessed as reduction in TNF production; format: cell-based; conditions: Plasmacytoid dendritic cell
[7] = molecular target: Glyceraldehyde-3-phosphate dehydrogenase (Homo sapiens) (UniProt P04406); assay: Inhibition of GAPDH in CpG-A-stimulated human plasmacytoid dendritic cells at 10 uM assessed as reduction in IFN-alpha production in presence of 1 uM oligomycin; format: cell-based; conditions: Plasmacytoid dendritic cell
[8] = molecular target: Glyceraldehyde-3-phosphate dehydrogenase (Homo sapiens) (UniProt P04406); assay: Inhibition of GAPDH in CpG-A-stimulated human plasmacytoid dendritic cells at 10 uM assessed as reduction in TNF production in presence of 1 uM oligomycin; format: cell-based; conditions: Plasmacytoid dendritic cell
[9] = molecular target: Glyceraldehyde-3-phosphate dehydrogenase (Homo sapiens) (UniProt P04406); assay: Inhibition of GAPDH in CpG-A-stimulated human plasmacytoid dendritic cells at 10 uM assessed as reduction in IFNa-alpha production; format: cell-based; conditions: Plasmacytoid dendritic cell
[10] = molecular target: Glyceraldehyde-3-phosphate dehydrogenase (Homo sapiens) (UniProt P04406); assay: Inhibition of GAPDH in CpG-A-stimulated human plasmacytoid dendritic cells at 10 uM assessed as reduction in overall protein synthesis; format: cell-based; conditions: Plasmacytoid dendritic cell
[11] = tested on: Plasmacytoid dendritic cell; assay: Inhibition of F1F0-ATP synthase in human plasmacytoid dendritic cells at 1 uM assessed as decrease in TNF production; format: cell-based
[12] = tested on: Plasmacytoid dendritic cell; assay: Inhibition of F1F0-ATP synthase in CpG-A-stimulated human plasmacytoid dendritic cells at 1 uM assessed as reduction in IFN-alpha production in presence of 10 uM heptelidic acid; format: cell-based
[13] = tested on: Plasmacytoid dendritic cell; assay: Inhibition of F1F0-ATP synthase in human plasmacytoid dendritic cells at 1 uM assessed as decrease in IFN-alpha production; format: cell-based
[14] = tested on: Plasmacytoid dendritic cell; assay: Inhibition of F1F0-ATP synthase in CpG-A-stimulated human plasmacytoid dendritic cells at 1 uM assessed as reduction in TNF production in presence of 10 uM heptelidic acid; format: cell-based
[15] = tested on: Plasmacytoid dendritic cell; assay: Inhibition of SLC7A5/SLC3A2 in CpG-A-stimulated human plasmacytoid dendritic cells at 10 uM assessed as decrease in kynurenine transport; format: cell-based
[16] = molecular target: T2, Signal transducer and activator of transcription 5A (Homo sapiens); assay: Inhibition of STAT5 in IL-3 and CpG-A-stimulated human plasmacytoid dendritic cells at 10 to 50 nM assessed as decrease in TNF production in presence of 100 uM sulfasalazine; format: cell-based; conditions: Plasmacytoid dendritic cell, dose 10-50 nM
[17] = molecular target: T2, Signal transducer and activator of transcription 5A (Homo sapiens); assay: Inhibition of STAT5 in IL-3 and CpG-A-stimulated human plasmacytoid dendritic cells at 10 to 50 nM assessed as decrease in IFN-alpha production in presence of 100 uM sulfasalazine; format: cell-based; conditions: Plasmacytoid dendritic cell, dose 10-50 nM

Sequence of Glyceraldehyde-3-phosphate dehydrogenase (Homo sapiens) (P04406 2-335 limits assumed): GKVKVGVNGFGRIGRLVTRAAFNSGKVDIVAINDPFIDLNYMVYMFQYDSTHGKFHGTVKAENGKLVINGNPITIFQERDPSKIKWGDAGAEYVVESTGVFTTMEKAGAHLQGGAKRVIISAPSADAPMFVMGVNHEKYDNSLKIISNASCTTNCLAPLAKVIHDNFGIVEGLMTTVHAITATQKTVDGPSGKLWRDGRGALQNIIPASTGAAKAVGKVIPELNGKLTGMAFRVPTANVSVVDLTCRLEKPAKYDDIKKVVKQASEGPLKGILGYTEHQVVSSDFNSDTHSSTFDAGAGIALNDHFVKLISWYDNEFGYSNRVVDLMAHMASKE
Sequence of Large neutral amino acids transporter small subunit 1 (Homo sapiens) (Q01650 whole entry): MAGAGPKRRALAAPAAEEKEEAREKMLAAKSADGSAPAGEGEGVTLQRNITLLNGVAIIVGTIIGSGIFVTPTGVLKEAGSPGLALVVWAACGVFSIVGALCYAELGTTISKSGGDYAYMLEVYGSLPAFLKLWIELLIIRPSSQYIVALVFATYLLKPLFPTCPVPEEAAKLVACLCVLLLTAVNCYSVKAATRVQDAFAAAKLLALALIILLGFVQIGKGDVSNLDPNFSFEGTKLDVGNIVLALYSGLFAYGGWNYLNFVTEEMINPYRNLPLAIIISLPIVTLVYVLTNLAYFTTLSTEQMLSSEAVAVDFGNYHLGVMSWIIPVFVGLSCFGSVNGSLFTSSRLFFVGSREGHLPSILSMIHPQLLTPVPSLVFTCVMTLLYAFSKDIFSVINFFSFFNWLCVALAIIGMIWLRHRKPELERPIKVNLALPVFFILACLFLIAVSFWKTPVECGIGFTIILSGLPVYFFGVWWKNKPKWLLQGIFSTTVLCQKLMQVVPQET

SMILES: CCS(=O)(=O)N1CC(CC#N)(n2cc(-c3ncnc4[nH]ccc34)cn2)C1
- inhibition [1]: Active

SMILES: N#C/C=N/c1c(SS)c(-c2ccccc2)nn1Cc1ccccc1
- inhibition [2]: > 90%

SMILES: N#Cc1c(Br)cccc1/N=c1\ssnc1Cl
- inhibition [2]: > 90%

SMILES: O=c1[nH]c2ccccc2n1C1CCN(CCCC(c2ccc(F)cc2)c2ccc(F)cc2)CC1
- inhibition [3]: Active
- inhibition [4]: Active

SMILES: CC(C)[C@H]1CC[C@@]2(CO2)[C@H]2C(=O)OCC(C(=O)O)=C[C@H]12
- inhibition [5]: Active
- inhibition [6]: Active
- inhibition [7]: Active
- inhibition [8]: Active
- inhibition [9]: Active
- inhibition [10]: Active

SMILES: CC[C@H]1/C=C/C=C/C[C@@H](C)[C@H](O)[C@@](C)(O)C(=O)[C@@H](C)[C@H](O)[C@@H](C)C(=O)[C@@H](C)[C@H](O)[C@@H](C)/C=C/C(=O)O[C@@H]2[C@H](C)[C@H](CC1)O[C@]1(CC[C@H](C)[C@H](C[C@@H](C)O)O1)[C@H]2C
- inhibition [11]: inactive
- inhibition [12]: Active
- inhibition [13]: Active
- inhibition [14]: Active

SMILES: NC1(C(=O)O)CC2CCC1C2 (centres undefined)
- inhibition [15]: Active

SMILES: CN(C)CCNc1nc2ccccc2c2[nH]c3ccccc3c12
- inhibition [16]: Active
- inhibition [17]: Active

SMILES: Fc1ccc(Cl)cc1/N=c1\ssnc1Cl
- inhibition [2]: > 90%
